Key:
HNDFs [1] = assay: Cytotoxicity of antcins against HNDFs (MTT assay); type: cell-based, human; conditions: Homo sapiens, 72 h, read-out: IC50 (50% inhibitory concentration) against HNDFs
Method: Figure 2 Effects of antcins on HG-induced senescence in HNDFs A. Type of antcins subjected to screen for potential anti-aging agents for skin aging. Names and chemical structures of the antcins are shown in the left and centrer column, respectively. The cytotoxic effects of antcins against HNDFs. Briefly, HNDFs were incubated with increasing concentrations (1, 5, 10 and 20 μM) of antcins including antcin A, antcin B, antcin C, antcin H, anticn K and antcin M for 72 h and the cell viability was determined by MTT assay. The 50% inhibitory concentrations (IC50) of each compound against HNDFs are shown in right column. B. Cells were incubated with antcin A (10 μM), antcin H (10 μM) and antcin M (10 μM) in the presence of HG (30 mM) for 72 h. Cellular senescence was determined by SA-β-gal activity. […] C. HNDFs were incubated with antcin A (10 μM), antcin H (10 μM) and antcin M (10 μM) in the presence of HG (30 mM) for 72 h. Senescence-associated marker proteins such as p16^INK4A, p21^CIP1 and SMP30 were determined by western blot analysis. D. To determine the effect of antcins on cell proliferation efficacy, HNDFs 5 × 10^4 cells/well in 6-well plates were incubated with antcins in the presence of HG (30 mM) for 72 h. Number of viable cells were quantified by the tryphan blue exclusion method. Results are expressed as mean ± S.E.M of three indipendent expriments. Statistical significance was et at ^ФP < 0.05 compared to NG vs HG and *P < 0.05 compared to HG vs. samples.
(§1) Human normal dermal fibroblasts (HNDFs, CCD966SK) and human umbilical vein endothelial cells (HUVECs) were obtained from the Bioresource Collection and Research Center (BCRC), Hsinchu, Taiwan. HNDFs were grown in MEM containing 10% FBS, 2 mM L-glutamine, 100 U/mL penicillin and streptomycin at 37°C in a fully humidified atmosphere of 5% CO2. Likewise, HUVECs were grown in M-199 medium supplemented with ECGS, heparin, 10% FBS and 100 U/mL penicillin and streptomycin at 37°C in a fully humidified atmosphere of 5% CO2. High-glucose treatment was performed by treating cells with 15 or 30 mM D-glucose (HG) for 24-72 h.
Cell viability was assessed by MTT colorimetric assay. Briefly, HNDFs (2 × 10^4 cells/well) or HUVECs (5 × 10^4 cells/well) were seeded in a 24-well culture plate. After treatment with HG (15 and 30 mM) in the presence or absence of samples for 24-72 h, culture media was withdrawn and incubated with MTT (1 mg/mL) in fresh medium for 2 h. The MTT formazan crystals were dissolved in 400 μL of DMSO and the samples were measured at 570 nm […] using an ELISA microplate reader (Bio-Tek Instruments, Winooski, VT). The percentage of cell viability (%) was calculated as (A570 of treated cells/A570 of untreated cells) × 100.

HNDFs [2] = assay: SA-β-gal senescence assay in HG-induced HNDFs; type: cell-based, human
Method: as §1
Senescence-associated β-galactosidase (SA-β-gal) activity was determined in formaldehyde-fixed histochemical staining kit according to the manufacturer's instructions (Cell Signaling Technology, Danvers, […]). Briefly, cells were grown in 6-well plates at a density of 5 × 10^4 cells/well, and incubated with HG or test samples for 48 h (HUVECs) or 72 h (HNDFs). After incubation, cells were stained with SA-β-gal staining solution at pH 6.0 overnight and then the development of blue staining was observed and photographed under a bright-field microscope (Motic Electric Group, Xiamen, P.R. China).

HNDFs [3] = assay: Cell proliferation, trypan blue exclusion assay in HG-induced HNDFs; type: cell-based, human; conditions: with HG (30 mM) for 72 h (Figure 2D)
Method: Cell proliferation was evaluated using trypan blue exclusion assay as described previously with minor modification. Cells were plated into 6-well plates at a density of 5 × 10^4 cells/well. After incubation overnight, cells were treated with test samples in the presence or absence of HG for 24-72 h. Cells exposed to 0.2% Trypan blue were then counted in a hemocytometer, and cells stained with Trypan blue were excluded. Percentage of viable cells was calculated based on the ratio of viable cells to total cell population in each well. The proliferation rate was calculated based on the number of viable cells in HG or sample-treated groups versus the NG-treated group.

HNDFs [4] = assay: Flow cytometric detection of intracellular ROS (DCFH2-DA) in HNDFs; type: cell-based, human
Method: Intracellular ROS accumulation was determined using the dye DCFH2-DA following a procedure described earlier. Briefly, HNDFs (1 × 10^5 cells/well) were seeded in 6-well plates and incubated with HG in the presence or absence of test samples for 24 h. At the end of the incubation, the culture supernatant was removed and cells were washed twice with PBS. DCFH2-DA (10 μM) was mixed with 500 μL MEM and added to the culture plate. After incubation for 30 minutes, cells were collected by trypsin and the fluorescence shift was quantified using a flow cytometer (Beckman Coulter). Data were acquired and analyzed using CXP software (Beckman Coulter).

[5] = system: Nrf2 transcriptional activity (ARE promoter); assay: ARE luciferase reporter assay in HNDFs; type: cell-based, human; conditions: 6 h
Method: ARE promoter activity was measured using a dual-luciferase reporter assay system (Promega, Madison, WI). […] Cells were then transfected with ARE plasmid (Qiagen, Hilden, Germany) using Lipofectamine 2000 (Invitrogen) and incubated for 36 h. […] The cell lysate was prepared and incubated with luciferase agents and the relative luminescence intensity was quantified using a spectrophotometer (Hidex Oy, Turku, Finland).

[6] = system: C. elegans wild type Bristol N2; assay: Stress-resistance assay (Juglone) in C. elegans; type: in vivo, Caenorhabditis elegans; conditions: pretreatment 10 μM for 3 days, then Juglone 250 μM for 2.5, 3.5 and 4.5 h
Method: The wild type Bristol N2 strain was used in this study. C. elegans and Escherichia coli OP50 strain were obtained from the Caenorhabditis Genetic Center, University of Minnesota (Minneapolis-St. Paul, MN). Worms were maintained at 20°C on nematode growth medium (NGM). Hatched worms (L1-stage larvae) were transferred to fresh agar plates and cultured with E. coli OP50 as a food source until they reached the L4 larvae stage. Synchronization of worm cultures was achieved by hypochlorite treatment of gravid hermaphrodites.
Age synchronized L1 larvae were incubated with liquid S-basal medium containing E. coli OP50 at a density of 1 × 10^9 cells. Ml and 10 and 20 μM ANM or 0.01% DMSO (vehicle control) for 3 days. Subsequently, adult worms were subjected to oxidative stress assay. To induce oxidative stress, worms were incubated with Juglone (5-hydroxyl-1,4-naphthoquinone; Sigma), an ROS-generating agent. ANM treated and control worms were transferred to S-basal medium containing 250 μM Juglone, and incubated from 2.5, 3.5 and 4.5 h. After treatment, viable worms were scored. […] The test was performed triplicate.

SMILES: C=C(CCC(C)C1CCC2C3=C(C(=O)C(O)C21C)C1(C)CCC(O)C(C)C1CC3)C(C)C(=O)O (stereo not drawn) [ANM, antcin M]
- IC50 (HNDFs [1]): > 50 µM
- SA-β-gal positive cells (HNDFs [2]; 10 μM with HG (30 mM) for 72 h, HG alone 9.59-fold (Figure 2B)): 1.51 fold
- SA-β-gal positive cells (HNDFs [2]; ANM 10 μM with HG (30 mM) for 72 h, HG alone 5.72-fold (Figure 4B)): 1.89 fold
- cell proliferation compared to the HG treatment group (HNDFs [3]): two-fold increase
- HG-induced ROS generation (HNDFs [4]; ANM 10 μM or NAC 100 μM with HG (30 mM) for 24 h, HG alone 426.2%): 200.8%
- ROS generation, treatment alone (HNDFs [4]; ANM 10 μM or NAC 100 μM without HG, 24 h): did not significantly increase ROS generation
- ARE luciferase activity ([5]; ANM 10 μM or NAC 100 μM alone, control 1-fold): 5.8 fold
- ARE luciferase activity ([5]; co-treated with HG (30 mM), ANM 10 μM or NAC 100 μM, HG alone 2.5-fold): 8.5 fold
- survival rate of worms exposed to oxidative stress [6]: significantly increased the survival rate
